In PMC4627342 (Oncotarget, 2015):
Like-named read-outs stand apart in the source and are kept apart here.

Columns and labels:
in vivo = details: both, NIH, mouse, iv
Experimental: Blood was collected from the retro-orbital plexus at designated time points and they were kept in cold heparin coated glass tubes. The blood from 1 male and 1 female was pooled and plasma was isolated and stored at −80°C until analysis. […] Pharmacokinetic parameters was determined from the concentration-time data by non compartment model using the 3P97 software (Practical Pharmacokinetics Software, Beijing, China).

liver = test: Swiss mice hepatotoxicity model; details: after 2 weeks, liver tissues
Swiss mice liver tissues = test: Ex vivo doxorubicin accumulation in Swiss mice liver tissues; details: 2.5 μM lapatinib, 10 μM doxorubicin
Experimental: The fresh normal liver tissue adjacent to the hepatocellular carcinoma retrieved from Sun Yat-sen university cancer center was used for the drug accumulation assay ex vivo. Informed consent was obtained from the patients before tissue collection. The work was approved by the ethics review committee at Sun Yat-sen University (Guangzhou, China). Liver tissues of 50-100 mg were cut into small pieces (1mm^3) and cultured in DMEM containing 15% fetal bovine serum at 37°C. […] Subsequently, the tissues were then collected, centrifuged and washed twice with cold PBS containing 10 μM verapamil. Then, liver tissues were resuspended in 1 ml/100 mg tissues lysis solution which contained 0.3 mol/l HCl and 60% ethanol (1:1) and was homogenized at 4°C and then centrifuged at 12 000 × g [43]. The supernatant was removed and its fluorescence signal was measured by a spectrofluorometer at λex 470 nm and λem 590 nm. Simultaneously, the standard curve of doxorubicin was made with the same condition. The doxorubicin accumulation in liver tissues (μg/g) was calculated according to the fluorescence value using a standard curve.

HepG2 cells [1] = test: Doxorubicin and rhodamine 123 accumulation by flow cytometry in parental cells; format: cell-based, human; details: in the presence of lapatinib
Experimental: The human hepatocellular carcinoma cell line HepG2 was obtained from American Type Culture Collection (ATCC). The Dox-selected derivative ABCB1-overexpressing HepG2/Adr subline was established as previous study. All cells were grown in DMEM supplemented with 10% fetal bovine serum, 100 units/mL streptomycin sulfate and 100 units/mL penicillin G sulfate, and maintained at 37°C in the presence of 5% CO2. HepG2/Adr cells were cultured with 1.2 μM Dox to maintain its ABCB1-overexpressing properties. All cells were grown in drug-free culture medium for more than 2 weeks before assay.
The accumulation of doxorubicin or rhodamine 123 in HepG2 and HepG2/Adr cells was measured as previously described. Verapamil, a known ABCB1 inhibitor, was used as a positive control.

ABCB1 = ABCB1 expression by Western blot and qRT-PCR; format: cell-based, human; details: HepG2/Adr cells, lapatinib for 24, 48 or 72 h
Experimental: After being incubated in blocking solution containing 5% non-fat milk in TBST buffer (10 mM Tris-HCL (pH 8.0), 150 mM NaCl, and 0.1% Tween 20) for 2 h at room temperature, membranes were incubated with primary antibody ABCB1 (1:1000 dilution, Santa Cruz Biotechnology) and GAPDH (1:5000 dilution, Kangcheng Biotechnology). The membranes were then incubated for 2 h with HRP-conjugated secondary antibody at 1:5000 dilution. Immunoreactive bands were visualized by the enhanced Phototope TM-HRP Detection Kit (Cell Signaling, USA) and exposed to Kodak medical X-ray processor (Carestream Health, USA). Protein expression was quantified by Scion Image software (Scion Co, USA).
Total cellular RNA was isolated by Trizol Reagent (Gibco BRL, USA) RNA extraction kit following manufacture instruction. cDNA were prepared from the sensitive HepG2 and the resistant HepG2/Adr cells. Reverse transcription was done with reverse transcriptase (Promega Corp., Madison, WI). Oligonucleotides primers for ABCB1 and GAPDH were synthesized commercially (Invitrogen Co., China). They included ABCB1 (homo sapiens), sense primer, 5′-[sequence]-3′, antisense primer, 5′-[sequence]-3′; Abcb1 (mus), sense primer, 5′-[sequence]-3′, antisense primer, 5′-[sequence]-3′; GAPDH, sense primer, 5′-[sequence]-3′, antisense primer, 5′-[sequence]-3′. […] Relative quantification of ABCB1 was performed using the 2^−ΔΔCt method [46]. […]

[2] = human pharmacokinetic studies ref 35, 36; cited from earlier work
[3] = biological target: T1, ABCB1-overexpressing HepG2/Adr cells (Homo sapiens, UniProt P08183); test: MTT cytotoxicity of doxorubicin with lapatinib, resistant cells; format: cell-based; details: lapatinib added 1 h before doxorubicin
T1 construct: The Dox-selected derivative ABCB1-overexpressing HepG2/Adr subline was established as previous study; endogenous in cells; host or cells: HepG2/Adr (doxorubicin-selected subline of human HepG2)
Experimental: (§1) We collected the cells and seeded them at a density of 3.0 × 10^3 cells per well in 96-well plates. […] After 68 h, MTT (5 mg/mL, 20 μL) was added into each well and cultured for another 4 h. Then the medium was discarded and each well was added with 120 μL DMSO. Finally, optical density was measured at 540 nm with background subtraction at 670 nm by Model 550 Microplate Reader (Bio-Rad, Hercules, CA, USA).

HepG2 cells [4] = test: MTT cytotoxicity of doxorubicin with lapatinib, parental cells; format: cell-based, human; details: lapatinib added 1 h before doxorubicin
Experimental: as §1

[5] = Adverse events in the hepatobiliary system in patients with HER2-overexpressing metastatic breast cancer; details: text count, cohort of 39 patients

T1 sequence (P08183 whole entry): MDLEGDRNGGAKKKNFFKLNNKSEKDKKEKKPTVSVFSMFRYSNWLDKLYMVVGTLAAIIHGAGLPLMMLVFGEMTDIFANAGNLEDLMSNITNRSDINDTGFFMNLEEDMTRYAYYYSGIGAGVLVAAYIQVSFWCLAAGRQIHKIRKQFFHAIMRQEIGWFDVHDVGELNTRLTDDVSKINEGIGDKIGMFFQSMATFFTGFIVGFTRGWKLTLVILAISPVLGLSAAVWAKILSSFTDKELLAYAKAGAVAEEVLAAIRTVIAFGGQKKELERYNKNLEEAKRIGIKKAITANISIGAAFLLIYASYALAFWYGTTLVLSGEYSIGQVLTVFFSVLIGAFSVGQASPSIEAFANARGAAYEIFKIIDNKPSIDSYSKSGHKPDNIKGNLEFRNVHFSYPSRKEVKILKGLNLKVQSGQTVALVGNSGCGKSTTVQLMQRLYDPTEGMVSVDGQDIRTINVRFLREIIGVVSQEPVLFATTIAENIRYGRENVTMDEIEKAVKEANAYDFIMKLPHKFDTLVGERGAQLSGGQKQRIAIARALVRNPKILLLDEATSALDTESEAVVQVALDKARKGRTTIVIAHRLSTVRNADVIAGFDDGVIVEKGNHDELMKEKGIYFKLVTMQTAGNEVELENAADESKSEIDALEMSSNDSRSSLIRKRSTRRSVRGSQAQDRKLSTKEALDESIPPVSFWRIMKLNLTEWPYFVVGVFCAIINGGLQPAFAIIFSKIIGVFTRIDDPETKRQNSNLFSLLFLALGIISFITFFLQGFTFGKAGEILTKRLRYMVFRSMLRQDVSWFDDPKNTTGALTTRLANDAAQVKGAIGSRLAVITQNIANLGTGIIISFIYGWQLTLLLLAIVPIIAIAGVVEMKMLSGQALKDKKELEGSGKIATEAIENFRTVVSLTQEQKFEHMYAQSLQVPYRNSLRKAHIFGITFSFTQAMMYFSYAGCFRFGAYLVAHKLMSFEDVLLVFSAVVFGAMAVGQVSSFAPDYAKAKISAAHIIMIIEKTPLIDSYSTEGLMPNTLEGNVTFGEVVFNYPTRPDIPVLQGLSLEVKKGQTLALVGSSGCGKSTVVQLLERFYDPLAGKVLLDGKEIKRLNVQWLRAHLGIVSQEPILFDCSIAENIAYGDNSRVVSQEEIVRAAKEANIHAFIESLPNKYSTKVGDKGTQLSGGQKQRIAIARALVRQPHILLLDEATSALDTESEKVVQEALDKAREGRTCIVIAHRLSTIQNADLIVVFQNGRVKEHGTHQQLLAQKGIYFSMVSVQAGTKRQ

AUC(0-inf) (in vivo; in vivo, 10 mg/kg) [ng·h/mL] | AUC(0-t) (in vivo; in vivo, 10 mg/kg) [ng·h/mL] | Vd (in vivo; in vivo, 10 mg/kg) [L] | MRT (in vivo; plasma, 10 mg/kg) [h] | half-life (in vivo; plasma, 10 mg/kg) [h] | MRT (in vivo; in vivo, 18 mg/kg) [h] | Vd (in vivo; in vivo, 18 mg/kg) [L] | clearance (in vivo; in vivo, 18 mg/kg) [mL/min] | half-life (in vivo; in vivo, 18 mg/kg) [h] | Compound | liver histology (HE staining) (liver) | increase of fluorescent index of doxorubicin (Swiss mice liver tissues) [fold] | intracellular accumulation of doxorubicin (HepG2 cells [1]) | intracellular accumulation of rhodamine 123 (HepG2 cells [1]) | ABCB1 RNA and protein expressions (ABCB1) | half-life [2] | highest peak plasma lapatinib concentration [2] | effect on cytotoxicity of doxorubicin [3] | effect on cytotoxicity of doxorubicin (HepG2 cells [4]) | patients who showed grade 1 abnormal hepatic function [5] [patients]
2960 ± 878 | 2920 ± 841 | 0.00339 ± 0.00121 | 7.51 ± 1.08 | 5.2 ± 0.75 |  |  |  |  | COc1cccc2c1C(=O)c1c(O)c3c(c(O)c1C2=O)C[C@@](O)(C(=O)CO)C[C@@H]3O[C@H]1C[C@H](N)[C@H](O)[C@H](C)O1 [Doxorubicin] | mild central venous hyperemia, Hepatic cord disorder and vacuolar degeneration |  |  |  |  |  |  |  |  | 
 |  |  |  |  |  |  |  |  | CS(=O)(=O)CCNCc1ccc(-c2ccc3ncnc(Nc4ccc(OCc5cccc(F)c5)c(Cl)c4)c3c2)o1 [Lapatinib] |  | 2.46 | not altered | not altered | not significantly altered | approximately 17 h | roughly 3 μM | enhance the cytotoxicity effect of doxorubicin in HepG2/Adr cells in a concentration-dependent manner | not in the parental HepG2 cells | 
 |  |  |  |  | 1.42 ± 0.08 | 0.015 ± 0.00128 | 0.139 | 1.24 ± 0.06 | CC(=O)O[C@H]1C(=O)[C@@]2(C)[C@H]([C@H](OC(=O)c3ccccc3)[C@]3(O)C[C@H](OC(=O)[C@H](O)[C@@H](NC(=O)c4ccccc4)c4ccccc4)C(C)=C1C3(C)C)[C@]1(OC(C)=O)CO[C@@H]1C[C@@H]2O [Paclitaxel, paclitaxel] | mild liver damage |  |  |  |  |  |  |  |  | 2
